# Assay results taken from publication PMC6274284 (Molecules, 2016).
# What was measured:
# [1] = target: T1, hGRX1 (Homo sapiens, UniProt P35754, C83S); format: binding
# [2] = target: T1, hGRX1; test: biochemical; format: binding
# [3] = tested on: hGRX
# [4] = target: T1, hGRX1; format: binding; remark: listed apart in the source
# T1 sequence (P35754 whole entry C83S, looked up): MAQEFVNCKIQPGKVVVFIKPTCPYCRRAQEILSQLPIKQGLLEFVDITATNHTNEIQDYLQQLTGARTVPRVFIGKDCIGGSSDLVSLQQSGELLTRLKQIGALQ
SMILES,MaxRel.STD hGRX1 [1],also measured
O=C(O)c1ccc(-c2cnco2)cc1 [RK036],2.1%,
Nc1ccc(CN2CCOCC2)cc1 [RK428],0.6%,
Cn1nc(C(=O)O)cc1-c1ccccc1 [RK246],0.6%,Kd [2]: 5.22 ± 1.16 mM
O=C(O)c1ccc(-n2cccc2)cc1 [RK207],0.5%,Kd [2]: 2.45 ± 0.52 mM
OCc1cc(-c2cccs2)[nH]n1 [RK126],23.4%,
COCc1cc(=O)oc2cc(O)c(Cl)cc12 [RK450],37.1%,
"C=CC(=O)NCc1ccn(-c2ccc(C(=O)OC)cc2)c1 [compound 5, Methyl 4-(3-(Acrylamidomethyl)-1H-pyrrol-1-yl)benzoate]",,"Enhancement of rate of reaction over naked acrylamide, hGRX [3]: about 35 fold"
COC(=O)c1cccc2cc[nH]c12 [RK028],11.2%,
COCc1cc(=O)oc2cc(N)ccc12 [RK411],13.7%,
Nc1ccccc1N1CCNCC1 [RK155],,"trNOE binding result, hGRX1 [4]: did not bind"
"C=CC(N)=O [acrylamide, reference compound]",,"Reaction half life, hGRX ([3]; human): about 20 h"
